Results on four substances are retold here after patent publication US20250319115A1, “Compositions and Methods for Modulating Cytokines” (Flagship Pioneering Innovations VII, LLC, priority 2022, published 2025).

The test system of one assay is IL-15 signaling pathway. Description: HEK-Blue IL-15 SEAP reporter assay. The format is cell-based. On the procedure: (§1) The effects of putative inhibitors on pro-inflammatory cytokine pathways are assessed using HEK-Blue cells engineered for the detection of bioactive cytokines via activation of JAK/STAT pathways and subsequent expression of the SEAP reporter gene. Cells are treated with their relevant cytokines+/−peptides or control antibodies, and 20 hours after treatment activation of the relevant cytokine receptor is determined via SEAP expression through mixing cell supernatants with a Quanti-Blue colorimetric reagent and measuring optical density at 600 nm.
(§2) Reporter lines HEK-Blue TL-4/TL-15/IFN-alpha were cultured in DMEM with GlutaMAX and 10% HI FBS (Gibco). […] After 24 hours, cells were treated with 10 μL of their relevant cytokines (StemCell Technologies) at the previously determined EC75 for activation (1.164 ng/mL for HEK-Blue IL-4, 2.26 ng/mL for HEK-Blue IL-15, and 0.456 ng/mL for HEK-Blue IFN-alpha), with or without 10 μL of peptides (5 uM final concentration) or control antibodies (1 ug/well). […]
(§3) 20-22 hours after treatment, 20 μL of the cell supernatants were collected and transferred to 96-well white flat opaque-bottom plates (Costar) and each sample was mixed with 180 μL of Quanti-Blue reagent. […] Assay plates were then removed from the incubator and the optical density of each well was measured at 600 nm on a GloMax plate reader. […]
A general note: Reporter assays use an easily measured gene product as a stand-in for the process of interest.

A further assay has as its system IL-4 signaling pathway. Nature of the assay: HEK-Blue IL-4 SEAP reporter assay. The format is cell-based. As for the experimental part:
as §1
Reporter lines HEK-Blue TL-4/TL-15/IFN-alpha were cultured in DMEM with GlutaMAX and 10% HI FBS (Gibco). Cells were seeded into black 96-well optical clear flat-bottomed PhenoPlates at densities of 25000 cells/well and 100 uL/well and allowed to rest overnight in a 37 C incubator with 5% CO2. After 24 hours, cells were treated with 10 μL of their relevant cytokines (StemCell Technologies) at the previously determined EC75 for activation (1.164 ng/mL for HEK-Blue IL-4, 2.26 ng/mL for HEK-Blue IL-15, and 0.456 ng/mL for HEK-Blue IFN-alpha), with or without 10 μL of peptides (5 uM final concentration) or control antibodies (1 ug/well). Cells were kept overnight in a 37 C incubator with 5% C02.
20-22 hours after treatment, 20 μL of the cell supernatants were collected and transferred to 96-well white flat opaque-bottom plates (Costar) and each sample was mixed with 180 μL of Quanti-Blue reagent. Colorimetric reactions were allowed to develop in a 37 C incubator with 5% C02 for a certain duration of time (3 hours for HEK-Blue IL-4, 2 hours for HEK-Blue IL-15, and 1 hour for IFN-alpha). Assay plates were then removed from the incubator and the optical density of each well was measured at 600 nm on a GloMax plate reader. Relative activation of the cytokine signaling pathway in question was determined by ratioing the optical density of each sample to the average optical density for the cytokine-only treated cells from the same plate.

Assay [1] deals with IFN-alpha signaling pathway. Nature of the assay: HEK-Blue IFN-alpha SEAP reporter assay. In kind it is cell-based. On the procedure:
as §1, §2, §3

For assay [2], the system named is Peripheral Blood Mononuclear Cells (PBMCs). Description: single cell RNA-seq of PBMCs treated with target protein. The conditions noted are these: 10 μM, 24 hours, vs scrambled protein control. The format is cell-based, human. On the procedure:
(§4) To determine the effect of the Target Protein on TLR activity, the Target Protein, irrelevant proteins, and controls were applied+/−established TLR agonists to a commercial reporter cell line which monitors the two main signal transduction pathways that respond to TLR activation. To determine which primary, human, immune cells are most responsive to the Target Proteins, the Target Proteins were applied to Peripheral Blood Mononuclear Cells (PBMCs) and then 24 hours later the PBMCs were subjected to single cell RNA-seq.
scRNA-seq: From example: Shifts in cell populations after treatment with Target Proteins are assessed by single cell RNA-seq (scRNA-seq). Target proteins (e.g., listed in Table 1) are synthesized through Fluorenylmethyloxycarbonyl (Fmoc) protection group chemistry using Solid Phase Peptide Synthesis (SPPS). […]
Post sequencing, reads are aligned to the human reference genome (GENCODE34/GRCH38). Reads are demultiplexed using DNA-barcoded antibodies and run through quality control (g. doublets are removed, singlet cells are selected with less than 15% mitochondria contamination at RNA levels and reads contain higher than 500 genes). […]
scRNA-seq: From example: Shifts in cell populations after treatment with Target Proteins are assessed by single cell RNA-seq (scRNA-seq). […]

Assay [3] concerns Interferon Regulatory Factor (IRF) pathway. Description: Dual Reporter Assay: NF-kB-SEAP and IRF-Lucia luciferase reporter monocyte (THP1) cells +/- TLR agonists. The format is cell-based, human. On the procedure:
as §4
Dual Reporter Assay: NF-kB-SEAP and IRF-Lucia luciferase reporter monocyte (THP1) cells (InvivoGen) are cultured in RPMI 1640 media supplemented with HEPES buffer (10 mM), sodium pyruvate (1 mM), glucose (4.5 g/L), fetal bovine serum (10%), penicillin (100 U/mL), streptomycin ([…]), and 2-mercaptoethanol (0.05 mM). THP1 cells are treated with 100 ng/mL LPS (Sigma-Aldrich) for 24 hrs, the target protein (final conc. 10 μM), or left untreated.
After treatment, THP1 cells are cultured for 24 hrs and then assayed for reporter activity. Both reporter proteins are measurable in the cell culture supernatant when using QUANTI-Blue (InvivoGen), a SEAP detection reagent, and QUANTI-Luc (InvivoGen), a luciferase detection reagent. QUANTI-Blue is a colorimetric enzyme assay developed to determine any alkaline phosphatase activity in a biological sample, such as cell culture supernatant. QUANTI-Luc is a lyophilized assay reagent containing all the components required to quantitatively measure the activity of Lucia Luciferase other coelenterazine-utilizing luciferases. Increased reporter activity after treatment with target protein is observed in cells where the target protein is immune stimulating. Additionally, decreased reporter activity after treatment with the target protein is observed in cells where the target protein is immune dampening.
To determine the effect of the Target Protein on TLR activity, the Target Protein, irrelevant proteins and controls were applied+/−established TLR agonists to a commercial reporter cell line which monitors the two main signal transduction pathways that respond to TLR activation. To determine which primary, human, immune cells are most responsive to the Target Proteins, the Target Proteins were applied to Peripheral Blood Mononuclear Cells (PBMCs) and then 24 hours later the PBMCs were subjected to single cell RNA-seq.

Where [4] appears, read: peptide 5 uM, cytokine at EC75, SEAP OD 600 nm.
Where [5] appears, read: THP-1 dual reporter cells, protein 10 μM vs scramble protein, 24 hours.

As for “SEQ ID NO: 1238_L8V: novel peptide capable of inhibiting pro-inflammatory cytokine pathways (LVVRWAVVVFRSSTAALPRAAEAARRSEKWPKTSALGRRS; listed as Homo sapiens)”, in the assay on IL-15 signaling pathway (setting [4]), the “Relative activity (compared to cytokine only controls), Cytokine IL-15” value is listed as −70%. Also, in the assay with IL-4 signaling pathway (FIG. 9), the “inhibitor of the IL-4 signaling pathway (grade in words)” value is given as “strong”.

Take “SEQ ID NO: 3915: novel peptide capable of activating the signaling pathway for IFN-alpha (LRRAIWGLLCLMVAEENQEASLRKLAVRRKFWRLGRATQRYSVAW; listed as Homo sapiens)”: the “activator of the IFN-alpha signaling pathway (grade in words)” value in assay [1] (FIG. 11) is “moderate activator”. Further, the “Relative activity (compared to cytokine only controls), Cytokine IFN-a” value in assay [1] (setting [4]) was “+40%”.

For “SEQ ID NO: 6091: novel peptide capable of inhibiting pro-inflammatory cytokine pathways (IFLFLPIFSFPQIFLLLFYHLE; listed as Homo sapiens)”, the “inhibitor of the IL-15 signaling pathway (grade in words)” value with IL-15 signaling pathway (FIG. 10) was “strong inhibitor”. The “Relative activity (compared to cytokine only controls), Cytokine IL-4” value in the assay on IL-4 signaling pathway (setting [4]) is listed as −40%.

Regarding “SEQ ID NO: 6516: novel, secreted peptide that inhibits the innate immune response caused by toll-like receptor agonists (MAAPSNKTELAWSPRLAA; listed as Homo sapiens)”, in assay [2], the “effect on T-cells, B-cells, and NK-cells (up/downregulated genes, scRNA-seq)” value is given as “relatively small effects”; the “effect on active monocytes and dendritic cells (up/downregulated genes, scRNA-seq)” value was “strongly affected”. Further, in assay [3] (THP-1 dual reporter cells, peptide 0, 2.5, 5, 7.5, and 10 μM in the presence of LPS, 24 hours), the “relative IRF activity (reporter gene expression)” value is recorded as “inhibition”. Moreover, in assay [3] (setting [5]), the “IRF response, co-treated with TLR1/2 agonist” value is listed as “inhibited”; the “IRF response, co-treated with TLR2 agonist” value is “no significant effect”; the “IRF response, co-treated with TLR3 agonist” value was “no significant effect”; the “IRF response, co-treated with TLR4 agonist” value is on record as “inhibited”. Besides, in assay [3] (setting [5]), the “IRF response, co-treated with TLR5 agonist” value is recorded as “no significant effect”; the “IRF response, co-treated with TLR6/2 agonist” value was “inhibited”; the “IRF response, co-treated with TLR7 agonist” value was “no significant effect”; the “IRF response, co-treated with TLR8 agonist” value was “no significant effect”. Moreover, in assay [3] (setting [5]), the “IRF response, co-treated with TLR9 agonist” value is given as “no significant effect”. The “IRF signal transduction pathway response from several TLRs” value in assay [3] (reporter cell line +/- TLR agonists) is recorded as “significantly blocks”.
